# Non-standard residues stand in square brackets, D forms with d. Residues, ends and D or L forms follow the SMILES beside them. *: point of attachment. Sta = CC(C)C[C@H](N)[C@@H](O)CC(=O)O; Isovaleryl = CC(C)CC(=O)*
# Assays:
# [1] = tested on: proteases in supernatant from the 6-fold protease deletion strain M400; experiment: Protease stability of proteins spiked into supernatant of the 6-fold protease deletion strain; format: biochemical, Trichoderma reesei; settings: pepstatin A 50 μM; SBTI 0.2 mg/ml; pH 4.2, 20 hours, 37°C
# Protocol: The protease stability of the model proteins IGF1, hGH, and IFNα2b were analyzed by spiking them into supernatant from the 6-fold protease deletion strain (Δpep1Δtsp1Δslp1Δgap1Δgap2Δpep4) M400. The supernatant was collected from a large shake flask culture CAH15. The undiluted supernatant from the shake flask cultivation CAH15 was incubated with the purified model proteins with and without pepstatin A (50 μM) and SBTI (0.2 mg/ml) inhibitors for 20 hours at 37° C. The 5 day culture supernatant pH was around 4.2. The reaction containing 0.05 μg μl of model protein was sampled after 20 hours. 50 mM sodium citrate pH 4.0 spiked with model proteins (0.05 g 1) was used as a buffer control.
# From each reaction 10 μl was loaded into an 18% SDS PAGE gel and run for 30 minutes at 200 V. The proteins in the gel were then transferred to nitrocellulose for immunoblotting. The nitrocellulose membrane was blocked for 1 hour at room temperature with 5% milk in TBST buffer. The individual blots were probed with their specific primary antibody to detect the appropriate model protein for 1 hour at room temperature on a shaker. The mouse anti-IGF1 antibody (R&D systems #mab291) was used at 2 μg/ml diluted in TBST. The mouse anti-rhGH antibody (Abeam #ab51232) was used at 2 μg/ml diluted in TBST. The mouse anti-IFNα2b antibody (Abeam #ab9386) was used at 1 μg/ml diluted in TBST. After briefly washing the blot membranes with TBST, the secondary antibody was added for 1 hour at room temperature shaking. The secondary goat anti-mouse AP conjugated antibody (Biorad #170-6520) was diluted 1:10,000 in TBST.
# This same spiking experiment as was done with MAB01 to investigate its stability in the 6 protease deletion supernatant with and without inhibitors (FIG. 43). Samples were taken as described above and immunoblotted with an anti-heavy chain AP conjugated antibody (Sigma #A3188). […] There was no obvious benefit having used inhibitors. The antibody was stable in this pH 4.2 supernatant. […]
# aspartic proteases = experiment: IgG degradation by pepstatin A affinity purified aspartic proteases; format: biochemical, Trichoderma reesei; settings: 10 μM pepstatin A; pH 5.5, 37°C, 20 hours
# Protocol: The T. reesei fed batch fermentation supernatant (15 ml) was used to batch bind proteases to the resin in 35 ml of buffer containing 50 mM sodium acetate, 0.2 M NaCl, pH 3.0. The column was washed with the same binding buffer and bound protein was removed with elution buffer (50 mM Tris-HCL, 1 M NaCl, pH 8.5). Fractions of 0.5 ml were collected. In total 42 μg of protease was purified. The peak fraction contained 0.04 μg/μl protein. 30 μl of each fraction was mixed with 6 μl of Laemmli sample buffer containing β-mercaptoethanol. The samples were heated at 95° C. for 5 minutes before being loaded into a 4-15% PAGE gel (BioRad mini-protean TGX precast gel) along with a broad range prestained molecular weight marker (BioRad). The gel was run in SDS PAGE running buffer for 30 minutes at 100 V, and then stained with GelCode (Thermo Scientific) blue stain.
# Protein (0.8 μg) from the peak fraction (F3) was then incubated with IgG (50 μg ml) in sodium citrate buffer (50 mM, pH 5.5) at 37° C. for 20 hours (FIG. 2). The protein was incubated either in the presence or absence of 10 μM pepstatin A. The antibody mixture was combined with Laemmli sample buffer and heated at 95° C. for 5 minutes. These samples were then loaded into a 4-15% PAGE gel (BioRad mini-protean TGX precast gel) along with a broad range prestained molecular weight marker (BioRad). […]
# [2] = tested on: M369 human growth hormone strain; experiment: hGH production in 24 well cultures with inhibitors and supplements; format: cell-based, Trichoderma reesei; settings: 24 well culture, pH 4.5, day 4 immunoblot
# Protocol: To evaluate what inhibitors would best stabilize production of hGH, 24 well cultures of these strains were performed. The M369 human growth hormone strain (Δpep1Δtsp1Δslp1Δgap1Δgap2) was grown along with single components or with combinations of the following: trypsin and subtilisin inhibitor SBTI, the acidic protease inhibitor peptide SIP, the acidic protease inhibitor peptide LIP, the aspartic protease inhibitor pepstatin A free peptide, pepstatin A immobilized to agarose beads, the trypsin and subtilisin inhibitor BBI from lima bean, the […] chymostatin, and BSA. Three independent wells were chosen for control wells where no inhibitors or supplements were added. These two strains were grown in 3 ml of TrMM with diammonium citrate without ammonium sulfate, 100 mM PIPPS, 20 g/L spent grain extract, 40 g/L lactose adjusted to pH 4.5. The 24 well plates were shaken at 800 rpm, 85% humidity, and 28° C. The cultures were grown for 6 days and covered with an air permeable membrane.
# Inhibitors were added first on day 1 and then daily beginning on day 3. 100 μl samples were taken from the culture wells beginning on day 3. The mycelium was spun down for 5 minutes at 13 k and the supernatant collected. From the culture supernatant 12 μl was loaded in a 4-20% SDS PAGE gel and immunoblotting made on nitrocellulose with mouse anti-hGH antibody (2 μg/ml) and goat anti-mouse IgG AP conjugated secondary antibody diluted 1:10,000 in TBST.
# Estimating the expression levels relative to the 200 ng control sample, the control wells produced between 3-6 mg/L of hGH, the BSA (0.25%)/SIP (50 μM)/8BTI (0.2 mg/ml) treatment produced 24.5 mg/L, the SIP (50 μM)/8BTI (0.2 mg/ml) treatment produced 26.6 mg/L, and the pepstatin A beads/SBTI (0.2 mg/ml) addition yielded 24.5 mg/L of hGH. Therefore, using a combination of inhibitors and additives worked best increasing the production levels by at least 4-fold. The critical parameter was to include an aspartic protease inhibitor into the mix.
compound,measurement,setting,value
CC(C)CC(=O)N[C@H](C(=O)N[C@H](C(=O)N[C@@H](CC(C)C)[C@@H](O)CC(=O)N[C@@H](C)C(=O)N[C@@H](CC(C)C)[C@@H](O)CC(=O)O)C(C)C)C(C)C [pepstatin A] (Isovaleryl-VV[Sta]A[Sta]-OH),"stabilisation of hGH, IFNα2b and IGF1 in supernatant",[1],remarkably stabilized
same,IgG degradation by aspartic proteases,aspartic proteases,inhibited
same,effect on hGH production,[2],negative effect on the growth hormone production

# From US11180767B2, “Protease deficient filamentous fungal cells and methods of use thereof” (GLYKOS FINLAND OY, priority 2012, dated 2021)
